Assay results: patent US4956363A, “Treatment of cognitive and behavioral disorders associated with aging and with dementia syndromes” (U C B S.A., priority 1988, dated 1990)

Test system: male NMRI mice
Assay: Toxicity, Irwin's test
Assay type: in vivo
Settings: mice, i.p.; death of two animals out of three within 48 hours
Description: Progressive doses of the compound to be tested are administered intraperitoneally to groups of three mice until the lethal dose is reached (dose which causes the death of two animals out of three within 48 hours).

SMILES: CCCc1nc(N2CCOCC2)nc(N(C)C(=O)C(C)C)n1
- Lethal dose: 922 mg/kg

SMILES: CCCc1nc(NC(=O)Oc2ccccc2)nc(N2CCOCC2)n1 [Compound 28, phenyl (4-morpholino-6-propyl-1,3,5-triazin-2-yl)carbamate]
- Lethal dose: > 1030 mg/kg

SMILES: CCCc1nc(NC(C)(CO)CO)nc(N2CCOCC2)n1 [Compound 13]
- Lethal dose: 934 mg/kg

SMILES: CCCc1nc(N2CCOCC2)nc(N2CCCC2CO)n1 (stereo not drawn) [Compound 19]
- Lethal dose: 1031 mg/kg

SMILES: CCCc1nc(NC(C)(C)CO)nc(N2CCOCC2)n1 [Compound 8]
- Lethal dose: 886 mg/kg

SMILES: CCCc1nc(N2CCOCC2)nc(N(C)C(=O)c2ccc(OC)cc2)n1 [Compound 32]
- Lethal dose: 1222 mg/kg

SMILES: CCCc1nc(NC(CO)(CO)CO)nc(N2CCOCC2)n1 [Compound 12]
- Lethal dose: 982 mg/kg

SMILES: CCCc1nc(NCCCCO)nc(N2CCOCC2)n1 [Compound 4]
- Lethal dose: 886 mg/kg

SMILES: CCCc1nc(NC(=O)Cc2ccccc2)nc(N2CCOCC2)n1 [Compound 23]
- Lethal dose: > 1024 mg/kg

SMILES: CCCc1nc(N2CCOCC2)nc(N(C)C(=O)c2ccc(OC)c(OC)c2)n1 [Compound 35]
- Lethal dose: 401 mg/kg

SMILES: CCCc1nc(NCC2(O)CCCCC2)nc(N2CCOCC2)n1 [Compound 18]
- Lethal dose: 1007 mg/kg

SMILES: CCCc1nc(NC(=O)c2ccc(Cl)cc2)nc(N2CCOCC2)n1 [Compound 29]
- Lethal dose: 398 mg/kg

SMILES: CCCc1nc(N2CCOCC2)nc(N(CCO)Cc2ccccc2)n1 [Compound 14]
- Lethal dose: > 1073 mg/kg

SMILES: CCCc1nc(N2CCOCC2)nc(N(C)C(=O)c2ccc(Cl)cc2)n1 [Compound 30]
- Lethal dose: 1125 mg/kg

SMILES: CCCc1nc(NCC(C)O)nc(N2CCOCC2)n1 (stereo not drawn) [Compound 5]
- Lethal dose: 563 mg/kg

SMILES: CCCc1nc(NC[C@@H](C)O)nc(N2CCOCC2)n1 [Compound 17, (R)-3-[(4-morpholino-6-propyl-1,3.5-triazin-2-yl)amino]-2-propanol]
- Lethal dose: 844 mg/kg

SMILES: CCCc1nc(NCCOC(=O)c2ccccc2)nc(N2CCOCC2)n1 [Compound 39]
- Lethal dose: > 1114 mg/kg

SMILES: CCCc1nc(NC(C)=O)nc(N2CCOCC2)n1
- Lethal dose: 905 mg/kg

SMILES: CCCc1nc(NCCOC(N)=O)nc(N2CCOCC2)n1 [Compound 42, 2-[[2-[(Aminocarbonyl)oxy]ethyl]amino]-4-morpholino-6-propyl-1,3,5-triazine]
- Lethal dose: > 931 mg/kg

SMILES: CCCc1nc(NC(=O)c2ccc(C)c(C)c2)nc(N2CCOCC2)n1 [Compound 36]
- Lethal dose: 1174 mg/kg

SMILES: CCCc1nc(NC(=O)C(C)C)nc(N2CCOCC2)n1 [Compound 24]
- Lethal dose: 880 mg/kg

SMILES: CCCc1nc(N2CCOCC2)nc(N(C)C(C)=O)n1
- Lethal dose: 947 mg/kg

SMILES: CCCc1nc(NCCCO)nc(N2CCOCC2)n1 [Compound 3]
- Lethal dose: 844 mg/kg

SMILES: CCCc1nc(NC(=O)c2ccc(C)cc2)nc(N2CCOCC2)n1 [Compound 33]
- Lethal dose: 1132 mg/kg

SMILES: CCCc1nc(NC(=O)c2ccc(OC)cc2)nc(N2CCOCC2)n1 [Compound 31]
- Lethal dose: 511 mg/kg

SMILES: CCCc1nc(NCCOC(=O)Cc2ccccc2)nc(N2CCOCC2)n1 [Compound 40]
- Lethal dose: 1157 mg/kg

SMILES: CCCc1nc(NCC(O)CO)nc(N2CCOCC2)n1 (stereo not drawn) [Compound 11]
- Lethal dose: 892 mg/kg

SMILES: CCCc1nc(NCCOC(=O)C(C)C)nc(N2CCOCC2)n1 [Compound 38]
- Lethal dose: > 1012 mg/kg

SMILES: CCCc1nc(N2CCOCC2)nc(N(CCOC(C)=O)C(C)=O)n1
- Lethal dose: 351 mg/kg

SMILES: CCCc1nc(NCC(O)CC)nc(N2CCOCC2)n1 (stereo not drawn) [Compound 6]
- Lethal dose: 886 mg/kg

SMILES: CCCc1nc(N2CCOCC2)nc(N(C)C(=O)c2ccc(C)cc2)n1 [Compound 34]
- Lethal dose: 1174 mg/kg

SMILES: CCCc1nc(NC(CO)C(O)c2ccccc2)nc(N2CCOCC2)n1 (stereo not drawn) [Compound 15]
- Lethal dose: 1121 mg/kg

SMILES: CCCc1nc(NO)nc(N2CCOCC2)n1 [Compound 2, 2-(hydroxyamino)-4-morpholino-6-propyl-1,3,5-triazine]
- Lethal dose: 718 mg/kg
